The values below come from patent US8772323B2, “Benzoxazole- and tetrahydrobenzoxazole-substituted pyridazinones as GPR119 agonists” (Boehringer Ingelheim International GmbH, priority 2010, dated 2014).

pEC50: −log10 of the molar value. Where a name gives a salt, the structure may show the parent alone.

Sequence of human GPR119 (Q8TDV5 whole entry): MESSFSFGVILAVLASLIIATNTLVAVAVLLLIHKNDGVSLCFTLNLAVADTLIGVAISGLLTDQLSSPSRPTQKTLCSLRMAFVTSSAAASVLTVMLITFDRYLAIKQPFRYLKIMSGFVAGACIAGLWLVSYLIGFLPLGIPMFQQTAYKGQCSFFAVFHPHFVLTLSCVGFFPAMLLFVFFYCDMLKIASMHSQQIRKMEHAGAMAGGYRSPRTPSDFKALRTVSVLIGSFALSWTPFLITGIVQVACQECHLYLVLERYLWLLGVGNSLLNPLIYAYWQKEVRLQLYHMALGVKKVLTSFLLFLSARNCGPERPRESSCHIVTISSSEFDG

The target in the assay is human GPR119 (Homo sapiens (Human), UniProt Q8TDV5). The experiment in a line: AlphaScreen cAMP assay in Min-6/hGPR119 cells (GPR119 activation, intracellular cAMP). The format is cell-based. Particulars: MIN6 cells stably transfected with human GPR119; 45 minutes' incubation at RT; AlphaScreen cAMP Assay Kit. As for the experimental part:
The compounds of formula I according to the invention are GPR119 agonists. The effect of the compounds on the activation of GPR119 and on the stimulation of intracellular cAMP concentration is determined using the AlphaScreen cAMP Assay Kit (Cat. No. #6760625R) made by PerkinElmer.
MIN6 cells [Miyazaki J et al. Endocrinology. 1990 July; 127(1):126-32] were stably transfected with an expression vector for human GPR119 cDNA (Acc. No. NP_848566). Min-6/hGPR119 cells are cultured in DMEM, 10% FBS, 50 μM β-mercaptoethanol, 0.3 mg/mL Geniticin, 2 mM GlutaMAX at 37° C. 5% CO2. For the assay, the cells are placed in Optiplates (white, 384-well, 160W-barcoded, TC, sterile with lid, Cat. No. #6007688 (Perkin Elmer); 10000 cells/well; 50 μl). The plates covered with lids are then incubated for 24 hours at 37° C./5% CO2.
After the medium has been sucked out of the wells completely, 10 μl of the test compound are added, the compounds are diluted beforehand with stimulating buffer (140 mM NaCl, 3.6 mM KCl, 0.5 mM NaH2PO4, 0.5 mM MgSO4, 1.5 mM CaCl2, 10 mM Hepes, 5 mM NaHCO3; pH 7.4. 0.5 mM IBMX and 0.1% BSA, the final DMSO concentration is 1%). After 45 minutes' incubation at RT, the cAMP concentrations are determined using the AlphaScreen cAMP Assay Kit (Cat. No. #6760625R from PerkinElmer).
Turning to `CC[C@H]1CC(=O)NN=C1c1ccc2nc(-c3ccc(OC4CCOCC4)cc3)oc2c1` [Example 194, (S)-5-ethyl-6-{2-[4-(tetrahydro-pyran-4-yloxy)-phenyl]-benzoxazol-6-yl}-4,5-dihydro-2H-pyridazin-3-one], the pEC50 is 6.48. Turning to `CC1CC(=O)NN=C1c1ccc2nc(-c3ccc(CN)cc3)oc2c1` (stereo not drawn) [Example 124, 6-[2-(4-aminomethyl-phenyl)-benzoxazol-6-yl]-5-methyl-4,5-dihydro-2H-pyridazin-3-one], the negative-log EC50 (pEC50) is 5.06. Against the preceding compound, the pEC50 is 1.42 log units lower. Regarding `Cc1cc(C2=NNC(=O)C3CC23)cc2oc(-c3ccccc3)nc12` (stereo not drawn) [Example 11, 5-(4-methyl-2-phenyl-benzoxazol-6-yl)-3,4-diaza-bicyclo[4.1.0]hept-4-en-2-one], the pEC50 was less than 5.00. The compound `O=C1NN=C(c2ccc3nc(-c4ccc(F)cc4)oc3c2)C2CC12` (stereo not drawn) [Example 18, 5-[2-(4-fluoro-phenyl)-benzoxazol-6-yl]-3,4-diaza-bicyclo[4.1.0]hept-4-en-2-one] had a pEC50 of 6.82. Turning to `CCC1CC(=O)NN=C1c1ccc2nc(-c3ccc(F)c(OC)c3)oc2c1` (stereo not drawn) [Example 93, 5-ethyl-6-[2-(4-fluoro-3-methoxy-phenyl)-benzoxazol-6-yl]-4,5-dihydro-2H-pyridazin-3-one], the pEC50 was 6.40.

With `CC[C@H]1CC(=O)NN=C1c1ccc2nc(-c3ccc(OC(C)C)cc3)oc2c1` [Example 192, (S)-5-ethyl-6-[2-(4-isopropoxy-phenyl)-benzoxazol-6-yl]-4,5-dihydro-2H-pyridazin-3-one], the pEC50 was 5.22. This pEC50 is 1.18 log units lower than that of the compound before. `CC[C@H]1C(c2ccc3nc(-c4ccccc4)oc3c2)=NNC(=O)[C@@H]1C` [Example 147, (4R,5R)-5-ethyl-4-methyl-6-(2-phenyl-1,3-benzoxazol-6-yl)-2,3,4,5-tetrahydropyridazin-3-one]: the pEC50 is 7.10.

In the case of `CCC1CC(=O)NN=C1c1ccc2nc(-c3ccc(OC[C@@H]4CCCN4C)cc3)oc2c1` (stereo partly drawn) [Example 242, 5-ethyl-6-{2-[4-(1-methyl-S-pyrrolidin-2-yl-methoxy)-phenyl]-benzoxazol-6-yl}-4,5-dihydro-2H-pyridazin-3-one], the pEC50 is 6.53.

Turning to `CCC1CC(=O)NN=C1c1ccc2nc(-c3ccc(OCCN4CCC(F)CC4)cc3)oc2c1` (stereo not drawn) [Example 248, 5-ethyl-6-(2-{4-[2-(4-fluoro-piperidin-1-yl)-ethoxy]-phenyl}-benzoxazol-6-yl)-4,5-dihydro-2H-pyridazin-3-one], the pEC50 is 6.80. In turn, `CCC1CC(=O)NN=C1c1ccc2nc(-c3ccc(OCCN4CCCC4=O)cc3)oc2c1` (stereo not drawn) [Example 167, 5-ethyl-6-(2-{4-[2-(2-oxo-pyrrolidin-1-yl)-ethoxy]-phenyl}-benzoxazol-6-yl)-4,5-dihydro-2H-pyridazin-3-one] gave a pEC50 of 5.99. As for `CCC1CC(=O)NN=C1c1ccc2nc(-c3ccc(C)s3)oc2c1` (stereo not drawn) [Example 101, 5-ethyl-6-[2-(5-methyl-thiophen-2-yl)-benzoxazol-6-yl]-4,5-dihydro-2H-pyridazin-3-one], the pEC50 was 6.71. `CCC1CC(=O)NN=C1c1ccc2nc(-c3ccc(OCC(=O)N4CCCCC4)cc3)oc2c1` (stereo not drawn) [Example 61, 5-ethyl-6-{2-[4-(2-oxo-2-piperidin-1-yl-ethoxy)-phenyl]-benzoxazol-6-yl}-4,5-dihydro-2H-pyridazin-3-one] showed a pEC50 of 6.47. With `CCC1CC(=O)NN=C1c1ccc2nc(-c3ccc(OCC(=O)OC(C)(C)C)cc3)oc2c1` (stereo not drawn) [Example 66, tert-butyl {4-[6-(4-ethyl-6-oxo-1,4,5,6-tetrahydro-pyridazin-3-yl)-benzoxazol-2-yl]-phenoxy}-acetate], the pEC50 was 6.95. With `CCC1CC(=O)NN=C1c1ccc2nc(-c3cccc(OC(C)C)c3)oc2c1` (stereo not drawn) [Example 100, 5-ethyl-6-[2-(3-isopropoxy-phenyl)-benzoxazol-6-yl]-4,5-dihydro-2H-pyridazin-3-one] the figure was 6.35; with `CC[C@H]1C(c2ccc3nc(-c4ccccc4)oc3c2)=NNC(=O)[C@H]1C` [Example 146, (4S,5R)-5-ethyl-4-methyl-6-(2-phenyl-1,3-benzoxazol-6-yl)-2,3,4,5-tetrahydropyridazin-3-one], 5.05; with `CC[C@H]1C(c2ccc3nc(-c4ccc(OC(C)C)cc4)oc3c2)=NNC(=O)[C@@H]1C` (relative stereo) [Example 178, trans-5-ethyl-6-[2-(4-isopropoxy-phenyl)-benzoxazol-6-yl]-4-methyl-4,5-dihydro-2H-pyridazin-3-one], 6.97. `Cc1cc(=O)[nH]nc1-c1ccc2nc(-c3ccc(C(=O)O)cc3)oc2c1` [Example 255, 4-[6-(4-methyl-6-oxo-1,6-dihydro-pyridazin-3-yl)-benzoxazol-2-yl]-benzoic acid]: the pEC50 was 5.14. Compound `CC[C@@H]1CC(=O)NN=C1c1ccc2nc(-c3ccc(N(C)C)cc3)oc2c1` [Example 191, (5R)-6-{2-[4-(dimethylamino)phenyl]-1,3-benzoxazol-6-yl}-5-ethyl-2,3,4,5-tetrahydropyridazin-3-one] gave a pEC50 of 7.39. For `CCC1CC(=O)NN=C1c1ccc2nc(-c3ccc(OC)cc3)oc2c1` (stereo not drawn) [Example 104, 5-ethyl-6-[2-(4-methoxy-phenyl)-benzoxazol-6-yl]-4,5-dihydro-2H-pyridazin-3-one], the pEC50 was 6.92.

Turning to `CC1CC(=O)NN=C1c1ccc2nc(-c3ccccc3)oc2c1` (stereo not drawn) [Example 82, 5-methyl-6-(2-phenyl-benzoxazol-6-yl)-4,5-dihydro-2H-pyridazin-3-one], the pEC50 was 6.72. As to `CCC1CC(=O)NN=C1c1ccc2nc(-c3ccc(OC4CCCCC4O)cc3)oc2c1` (stereo not drawn) [Example 212, 5-ethyl-6-(2-{4-[(2-hydroxycyclohexyl)oxy]phenyl}-1,3-benzoxazol-6-yl)-2,3,4,5-tetrahydropyridazin-3-one], the pEC50 was 6.97. Against the preceding compound, the pEC50 is 0.25 log units higher.

On to `CCC1CC(=O)NN=C1c1ccc2nc(-c3ccc(OCc4ccncc4)cc3)oc2c1` (stereo not drawn) [Example 46, 5-ethyl-6-{2-[4-(pyridin-4-ylmethoxy)-phenyl]-benzoxazol-6-yl}-4,5-dihydro-2H-pyridazin-3-one], for which the pEC50 was 6.46. This pEC50 lies 0.51 log units lower than the previous one. With `CCC1CC(=O)NN=C1c1ccc2nc(-c3cccc(OCc4cccnc4)c3)oc2c1` (stereo not drawn) [Example 45, 5-ethyl-6-{2-[3-(pyridin-3-ylmethoxy)-phenyl]-benzoxazol-6-yl}-4,5-dihydro-2H-pyridazin-3-one] the figure was 6.09; with `CCC1CC(=O)NN=C1c1ccc2nc(-c3ccc(OCCN4CCCCC4)cc3)oc2c1` (stereo not drawn) [Example 49, 5-ethyl-6-{2-[4-(2-piperidin-1-yl-ethoxy)-phenyl]-benzoxazol-6-yl}-4,5-dihydro-2H-pyridazin-3-one], 6.94; with `CCC1CC(=O)NN=C1c1ccc2nc(-c3ccc(OCCCN4CCCCC4)cc3)oc2c1` (stereo not drawn) [Example 161, 5-ethyl-6-{2-[4-(3-piperidin-1-yl-propoxy)-phenyl]-benzoxazol-6-yl}-4,5-dihydro-2H-pyridazin-3-one x HCl], 6.53. Compound `CCC1CC(=O)NN=C1c1ccc2nc(-c3ccc(OC4CCCCCN4C)cc3)oc2c1` (stereo not drawn) [Example 234, 5-ethyl-6-{2-[4-(1-methyl-2-azepan-2-yloxy)-phenyl]-benzoxazol-6-yl}-4,5-dihydro-2H-pyridazin-3-one] showed a pEC50 of 6.51. Compound `CCC[C@H]1C(=O)NN=C(c2ccc3nc(-c4ccsc4)oc3c2)[C@@H]1C` (relative stereo) [Example 187, trans-5-methyl-4-propyl-6-(2-thiophen-3-yl-benzoxazol-6-yl)-4,5-dihydro-2H-pyridazin-3-one] gave a pEC50 of 6.76. For `CCC1CC(=O)NN=C1c1ccc2nc(-c3cccc(O)c3)oc2c1` (stereo not drawn) [Example 39, 6-[2-(3-hydroxy-phenyl)-benzoxazol-6-yl]-5-ethyl-4,5-dihydro-2H-pyridazin-3-one], the negative logarithm of the EC50 (pEC50) is 6.48. On to `O=C1NN=C(c2ccc3nc(Cc4ccccc4)oc3c2)C2CC12` (stereo not drawn) [Example 136, 5-(2-benzyl-benzoxazol-6-yl)-3,4-diaza-bicyclo[4.1.0]hept-4-en-2-one], for which the pEC50 was 5.70. With `CCC1CC(=O)NN=C1c1ccc2nc(-c3ccc(OCCN(CC)C(C)C)cc3)oc2c1` (stereo not drawn) [Example 215, 5-ethyl-6-(2-{4-[2-(ethyl-isopropyl-amino)-ethoxy]-phenyl}-benzoxazol-6-yl)-4,5-dihydro-2H-pyridazin-3-one] the figure was 6.97. `CCC1CC(=O)NN=C1c1ccc2nc(-c3ccc(OCc4ccc(S(C)(=O)=O)cc4)cc3)oc2c1` (stereo not drawn) [Example 158, 5-ethyl-6-{2-[4-(4-methanesulphonyl-benzoxy)-phenyl]-benzoxazol-6-yl}-4,5-dihydro-2H-pyridazin-3-one]: the pEC50 was 5.71. Consider `COc1ccc(-c2nc3ccc(C4=NNC(=O)CC4C)cc3o2)cc1` (stereo not drawn) [Example 83, 6-[2-(4-methoxy-phenyl)-benzoxazol-6-yl]-5-methyl-4,5-dihydro-2H-pyridazin-3-one], for which the pEC50 was 7.03. Turning to `CCC1CC(=O)NN=C1c1ccc2nc(-c3ccc(OCCN(CC)CC)cc3)oc2c1` (stereo not drawn) [Example 222, 6-{2-[4-(2-diethylamino-ethoxy)-phenyl]-benzoxazol-6-yl}-5-ethyl-4,5-dihydro-2H-pyridazin-3-one], the pEC50 is 6.52.
